Measured values published in ChEMBL document CHEMBL1909046, “DrugMatrix in vitro pharmacology data”.
*1 amine or outer side, *2 acyl side, *3 side chain or, on linkers, in order; H or OH if unused. Where a SMILES comes first, the peptide text is derived from it. Bridges are numbered along the chain shown (N, C = ends). Roman numbers before positions name the chains, in order. [ ]: non-standard residue; d: D form. Actinocin(1to9) = Cc1c2oc3c(C)ccc(C(=O)[*:2])c3nc-2c(C(=O)[*:1])c(N)c1=O; NMeV = CN[C@H](C(=O)O)C(C)C; Sar = CNCC(=O)O

Key:
[1] = DRUGMATRIX: Sigma2 radioligand binding (ligand: [3H] Ifenprodil); type: cell membranes, Rattus norvegicus, Wistar, Brain, Membrane; settings: Not Active = under 50% inhibition at 10 µM
Nitric oxide synthase 1 = Nitric oxide synthase 1 (Rattus norvegicus, UniProt P29476); type: tissue-based, Cerebellum; further: in other assays of this panel Not Active means under 50% inhibition at 10 µM
Nitric oxide synthase 1, sequence (P29476 whole entry): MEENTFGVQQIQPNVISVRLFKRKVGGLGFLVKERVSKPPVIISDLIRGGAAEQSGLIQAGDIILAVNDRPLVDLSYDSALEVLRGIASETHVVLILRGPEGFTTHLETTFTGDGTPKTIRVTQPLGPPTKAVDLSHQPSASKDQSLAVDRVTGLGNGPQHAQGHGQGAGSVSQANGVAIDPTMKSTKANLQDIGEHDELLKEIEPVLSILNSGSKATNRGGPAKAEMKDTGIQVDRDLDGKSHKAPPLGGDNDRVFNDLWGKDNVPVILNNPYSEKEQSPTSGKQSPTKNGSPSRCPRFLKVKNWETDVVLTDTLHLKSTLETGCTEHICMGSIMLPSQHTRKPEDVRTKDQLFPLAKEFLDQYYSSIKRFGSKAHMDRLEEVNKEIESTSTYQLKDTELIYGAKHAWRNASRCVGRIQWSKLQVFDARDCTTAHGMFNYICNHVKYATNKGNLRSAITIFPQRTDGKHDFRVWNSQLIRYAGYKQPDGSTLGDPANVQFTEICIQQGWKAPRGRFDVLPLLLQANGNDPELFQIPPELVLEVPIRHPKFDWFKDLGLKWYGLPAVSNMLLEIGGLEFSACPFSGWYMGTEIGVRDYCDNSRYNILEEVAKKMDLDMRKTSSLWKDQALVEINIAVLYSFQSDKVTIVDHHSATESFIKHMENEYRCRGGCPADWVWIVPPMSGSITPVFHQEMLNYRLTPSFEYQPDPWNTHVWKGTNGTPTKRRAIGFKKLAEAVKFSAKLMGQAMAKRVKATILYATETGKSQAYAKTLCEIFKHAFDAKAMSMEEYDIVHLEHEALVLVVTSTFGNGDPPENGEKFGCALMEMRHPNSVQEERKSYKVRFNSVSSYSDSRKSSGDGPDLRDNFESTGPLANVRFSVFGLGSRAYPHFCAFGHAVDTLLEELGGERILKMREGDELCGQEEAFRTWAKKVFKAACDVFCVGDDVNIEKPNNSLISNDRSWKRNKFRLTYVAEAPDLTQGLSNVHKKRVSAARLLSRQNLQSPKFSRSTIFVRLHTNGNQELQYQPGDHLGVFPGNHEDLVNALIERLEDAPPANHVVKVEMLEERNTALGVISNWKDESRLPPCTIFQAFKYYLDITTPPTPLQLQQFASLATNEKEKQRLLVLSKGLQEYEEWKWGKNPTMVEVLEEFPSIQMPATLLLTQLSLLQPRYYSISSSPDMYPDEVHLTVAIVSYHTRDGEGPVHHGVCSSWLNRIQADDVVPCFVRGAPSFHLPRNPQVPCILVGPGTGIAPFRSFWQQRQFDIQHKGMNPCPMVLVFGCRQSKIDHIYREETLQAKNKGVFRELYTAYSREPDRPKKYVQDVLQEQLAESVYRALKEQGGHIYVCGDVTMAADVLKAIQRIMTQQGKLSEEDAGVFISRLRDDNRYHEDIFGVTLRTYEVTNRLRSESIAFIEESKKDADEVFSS

Interstitial collagenase = biological target: T1, Interstitial collagenase (Homo sapiens, UniProt P03956); assay: biochemical; type: tissue-based, Rheumatoid synovial fibroblasts;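 further: MMP-1 enzyme inhibition assay using a peptide substrate; in other assays of this panel Not Active means under 50% inhibition at 10 µM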
T1 sequence (P03956 whole entry): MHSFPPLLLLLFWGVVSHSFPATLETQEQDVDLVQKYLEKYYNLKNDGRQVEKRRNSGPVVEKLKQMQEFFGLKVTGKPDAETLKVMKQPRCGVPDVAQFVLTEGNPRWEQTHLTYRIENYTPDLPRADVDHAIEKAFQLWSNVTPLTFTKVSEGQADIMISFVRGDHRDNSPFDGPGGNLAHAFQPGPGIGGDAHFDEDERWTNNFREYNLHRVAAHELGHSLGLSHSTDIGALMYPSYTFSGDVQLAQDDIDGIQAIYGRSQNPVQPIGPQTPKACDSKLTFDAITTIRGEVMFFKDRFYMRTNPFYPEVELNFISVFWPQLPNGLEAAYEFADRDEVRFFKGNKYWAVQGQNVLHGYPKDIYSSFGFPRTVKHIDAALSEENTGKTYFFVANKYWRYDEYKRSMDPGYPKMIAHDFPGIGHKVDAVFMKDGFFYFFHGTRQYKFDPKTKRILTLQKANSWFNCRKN

Glucocorticoid receptor = biological target: T2, Glucocorticoid receptor (Homo sapiens, UniProt P04150); settings: hela s3; further: in other assays of this panel Not Active means under 50% inhibition at 10 µM
T2 sequence (P04150 whole entry): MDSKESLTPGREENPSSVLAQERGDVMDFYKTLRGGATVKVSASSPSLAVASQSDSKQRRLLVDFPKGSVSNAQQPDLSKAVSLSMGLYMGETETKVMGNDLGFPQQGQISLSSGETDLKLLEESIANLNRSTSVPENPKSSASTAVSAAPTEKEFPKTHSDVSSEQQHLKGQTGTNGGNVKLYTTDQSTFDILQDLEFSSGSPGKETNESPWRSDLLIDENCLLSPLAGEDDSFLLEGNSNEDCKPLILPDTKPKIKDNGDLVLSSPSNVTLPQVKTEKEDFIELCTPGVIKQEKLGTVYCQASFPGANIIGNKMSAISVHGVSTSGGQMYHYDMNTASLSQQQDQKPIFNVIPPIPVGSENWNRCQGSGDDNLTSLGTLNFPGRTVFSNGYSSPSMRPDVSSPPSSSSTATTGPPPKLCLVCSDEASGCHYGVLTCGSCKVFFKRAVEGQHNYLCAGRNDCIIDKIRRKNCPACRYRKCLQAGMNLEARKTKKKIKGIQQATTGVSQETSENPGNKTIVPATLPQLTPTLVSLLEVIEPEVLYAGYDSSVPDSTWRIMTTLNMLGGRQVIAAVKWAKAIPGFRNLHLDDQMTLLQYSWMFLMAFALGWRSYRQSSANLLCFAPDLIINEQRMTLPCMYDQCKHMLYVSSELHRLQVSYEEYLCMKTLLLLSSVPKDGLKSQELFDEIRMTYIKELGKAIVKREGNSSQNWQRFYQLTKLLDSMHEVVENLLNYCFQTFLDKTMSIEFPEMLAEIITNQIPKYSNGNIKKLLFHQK

Progesterone receptor = biological target: T3, Progesterone receptor (Bos taurus, UniProt Q690N0); assay: DRUGMATRIX: Progesterone radioligand binding (ligand: [3H] R-5020); type: tissue-based, Uterus; settings: Not Active = under 50% inhibition at 10 µM
T3 sequence (Q690N0 whole entry): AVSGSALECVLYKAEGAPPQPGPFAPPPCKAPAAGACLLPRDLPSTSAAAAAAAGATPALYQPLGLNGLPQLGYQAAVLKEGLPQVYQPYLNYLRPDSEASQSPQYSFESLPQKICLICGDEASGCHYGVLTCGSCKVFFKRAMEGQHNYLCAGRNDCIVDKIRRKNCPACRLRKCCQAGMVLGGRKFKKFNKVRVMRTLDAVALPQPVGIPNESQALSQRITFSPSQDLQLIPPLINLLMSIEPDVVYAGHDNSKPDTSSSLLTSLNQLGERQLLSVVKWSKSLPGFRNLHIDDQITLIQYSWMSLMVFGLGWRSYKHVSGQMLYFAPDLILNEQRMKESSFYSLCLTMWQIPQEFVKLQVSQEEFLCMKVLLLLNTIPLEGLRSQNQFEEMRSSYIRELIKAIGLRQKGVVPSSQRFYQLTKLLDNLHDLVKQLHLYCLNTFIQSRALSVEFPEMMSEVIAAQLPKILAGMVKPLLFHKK

Cytochrome P450 1A2 = biological target: T4, Cytochrome P450 1A2 (Homo sapiens, UniProt P05177); settings: bti-tn-5b1-4; further: in other assays of this panel Not Active means under 50% inhibition at 10 µM
T4 sequence (P05177 whole entry): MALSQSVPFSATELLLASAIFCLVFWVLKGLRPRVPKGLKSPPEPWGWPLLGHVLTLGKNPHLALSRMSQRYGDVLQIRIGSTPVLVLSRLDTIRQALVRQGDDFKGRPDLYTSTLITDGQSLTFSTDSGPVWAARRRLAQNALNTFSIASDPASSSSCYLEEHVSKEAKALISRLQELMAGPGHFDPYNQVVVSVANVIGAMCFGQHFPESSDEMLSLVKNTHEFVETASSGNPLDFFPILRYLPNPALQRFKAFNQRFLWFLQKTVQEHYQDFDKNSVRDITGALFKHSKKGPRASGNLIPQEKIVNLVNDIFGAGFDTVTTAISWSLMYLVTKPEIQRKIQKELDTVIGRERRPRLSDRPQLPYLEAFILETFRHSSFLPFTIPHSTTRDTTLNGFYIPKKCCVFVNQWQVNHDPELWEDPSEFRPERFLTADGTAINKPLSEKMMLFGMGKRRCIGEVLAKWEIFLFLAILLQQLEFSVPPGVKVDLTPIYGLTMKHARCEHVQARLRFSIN

Cytochrome P450 2C19 = Cytochrome P450 2C19 (Homo sapiens, UniProt P33261); settings: bti-tn-5b1-4; further: in other assays of this panel Not Active means under 50% inhibition at 10 µM
Cytochrome P450 2C19, sequence (P33261 whole entry): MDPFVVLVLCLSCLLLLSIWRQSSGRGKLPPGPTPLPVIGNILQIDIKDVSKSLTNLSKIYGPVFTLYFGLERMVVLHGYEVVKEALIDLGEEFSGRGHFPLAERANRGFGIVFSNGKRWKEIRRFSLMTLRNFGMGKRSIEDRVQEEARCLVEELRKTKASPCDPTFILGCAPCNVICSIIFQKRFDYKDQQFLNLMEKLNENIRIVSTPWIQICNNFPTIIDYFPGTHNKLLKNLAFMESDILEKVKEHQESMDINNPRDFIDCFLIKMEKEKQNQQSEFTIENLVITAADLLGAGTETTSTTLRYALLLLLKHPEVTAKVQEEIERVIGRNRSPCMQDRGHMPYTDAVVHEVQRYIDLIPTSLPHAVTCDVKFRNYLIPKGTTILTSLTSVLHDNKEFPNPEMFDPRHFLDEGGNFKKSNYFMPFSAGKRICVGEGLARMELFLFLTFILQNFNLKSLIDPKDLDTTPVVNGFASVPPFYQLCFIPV

COc1ccc(C[C@H]2NC[C@H](O)[C@H]2OC(C)=O)cc1 [ANISOMYCIN]
Not Active: IC50 [1] | Ki [1] | IC50 (Nitric oxide synthase 1) | Ki (Nitric oxide synthase 1) | IC50 (Interstitial collagenase) | Ki (Interstitial collagenase) | IC50 (Glucocorticoid receptor) | Ki (Glucocorticoid receptor) | IC50 (Progesterone receptor) | Ki (Progesterone receptor) | IC50 (Cytochrome P450 1A2) | Ki (Cytochrome P450 1A2) | IC50 (Cytochrome P450 2C19) | Ki (Cytochrome P450 2C19)

CNNCc1ccc(C(=O)NC(C)C)cc1 [PROCARBAZINE]
Not Active: IC50 [1] | Ki [1] | IC50 (Nitric oxide synthase 1) | IC50 (Interstitial collagenase) | IC50 (Glucocorticoid receptor) | IC50 (Progesterone receptor) | IC50 (Cytochrome P450 1A2) | Ki (Cytochrome P450 1A2) | IC50 (Cytochrome P450 2C19) | Ki (Cytochrome P450 2C19)

Cc1onc(O)c1CC(N)C(=O)O (racemic) [(R,S)-AMPA]
Not Active: IC50 [1] | Ki [1] | IC50 (Nitric oxide synthase 1) | IC50 (Interstitial collagenase) | IC50 (Glucocorticoid receptor) | IC50 (Progesterone receptor) | IC50 (Cytochrome P450 1A2) | Ki (Cytochrome P450 1A2) | IC50 (Cytochrome P450 2C19) | Ki (Cytochrome P450 2C19)

Cc1c(O)c(=O)ccn1C [DEFERIPRONE]
Not Active: IC50 [1] | Ki [1] | IC50 (Nitric oxide synthase 1) | IC50 (Interstitial collagenase) | IC50 (Glucocorticoid receptor) | IC50 (Progesterone receptor) | IC50 (Cytochrome P450 1A2) | Ki (Cytochrome P450 1A2) | IC50 (Cytochrome P450 2C19) | Ki (Cytochrome P450 2C19)

CCOC(=O)C1=C(COCCN)NC(C)=C(C(=O)OC)C1c1ccccc1Cl (configuration not stated) [AMLODIPINE]
Not Active: IC50 [1] | Ki [1] | IC50 (Nitric oxide synthase 1) | IC50 (Interstitial collagenase) | IC50 (Glucocorticoid receptor) | IC50 (Progesterone receptor) | IC50 (Cytochrome P450 1A2) | Ki (Cytochrome P450 1A2) | IC50 (Cytochrome P450 2C19) | Ki (Cytochrome P450 2C19)

LEAD (II) ACETATE
Not Active: IC50 [1] | Ki [1] | IC50 (Nitric oxide synthase 1) | Ki (Nitric oxide synthase 1) | IC50 (Interstitial collagenase) | Ki (Interstitial collagenase) | IC50 (Glucocorticoid receptor) | Ki (Glucocorticoid receptor) | IC50 (Progesterone receptor) | Ki (Progesterone receptor) | IC50 (Cytochrome P450 1A2) | Ki (Cytochrome P450 1A2) | IC50 (Cytochrome P450 2C19) | Ki (Cytochrome P450 2C19)

Cc1c2oc3c(C)ccc(C(=O)N[C@@H]4C(=O)N[C@H](C(C)C)C(=O)N5CCC[C@H]5C(=O)N(C)CC(=O)N(C)[C@@H](C(C)C)C(=O)O[C@@H]4C)c3nc-2c(C(=O)N[C@@H]2C(=O)N[C@H](C(C)C)C(=O)N3CCC[C@H]3C(=O)N(C)CC(=O)N(C)[C@@H](C(C)C)C(=O)O[C@@H]2C)c(N)c1=O [DACTINOMYCIN] (I: T[dV]P[Sar][NMeV] / II: T[dV]P[Sar][NMeV]; ester I:1-I:C, II:1-II:C; linker I:N-II:N via Actinocin(1to9))
Not Active: IC50 [1] | Ki [1] | IC50 (Nitric oxide synthase 1) | IC50 (Interstitial collagenase) | IC50 (Glucocorticoid receptor) | IC50 (Progesterone receptor) | IC50 (Cytochrome P450 1A2) | Ki (Cytochrome P450 1A2) | IC50 (Cytochrome P450 2C19) | Ki (Cytochrome P450 2C19)

NCCCCCC(=O)O [AMINOCAPROIC ACID]
Not Active: IC50 [1] | Ki [1] | IC50 (Nitric oxide synthase 1) | IC50 (Interstitial collagenase) | IC50 (Glucocorticoid receptor) | IC50 (Progesterone receptor) | IC50 (Cytochrome P450 1A2) | Ki (Cytochrome P450 1A2) | IC50 (Cytochrome P450 2C19) | Ki (Cytochrome P450 2C19)

c1ccc(Nc2ccc(Nc3ccccc3)cc2)cc1
Not Active: IC50 [1] | Ki [1] | IC50 (Nitric oxide synthase 1) | IC50 (Interstitial collagenase) | IC50 (Glucocorticoid receptor) | IC50 (Progesterone receptor) | IC50 (Cytochrome P450 1A2) | Ki (Cytochrome P450 1A2) | IC50 (Cytochrome P450 2C19) | Ki (Cytochrome P450 2C19)

NC(=O)N1c2ccccc2CCc2ccccc21
Not Active: IC50 [1] | Ki [1] | IC50 (Nitric oxide synthase 1) | IC50 (Interstitial collagenase) | IC50 (Glucocorticoid receptor) | IC50 (Progesterone receptor) | IC50 (Cytochrome P450 1A2) | Ki (Cytochrome P450 1A2) | IC50 (Cytochrome P450 2C19) | Ki (Cytochrome P450 2C19)

c1ccc2c(c1)c1cccc3ccc4cccc2c4c31 [BENZO[E]PYRENE]
Not Active: IC50 [1] | Ki [1] | IC50 (Nitric oxide synthase 1) | IC50 (Interstitial collagenase) | IC50 (Glucocorticoid receptor) | IC50 (Progesterone receptor) | IC50 (Cytochrome P450 2C19) | Ki (Cytochrome P450 2C19)

Cc1ccc2cc3c(ccc4ccccc43)c3c2c1CC3 [3-METHYLCHOLANTHRENE]
Not Active: IC50 [1] | Ki [1] | IC50 (Nitric oxide synthase 1) | IC50 (Interstitial collagenase) | IC50 (Glucocorticoid receptor) | IC50 (Progesterone receptor) | IC50 (Cytochrome P450 2C19) | Ki (Cytochrome P450 2C19)

C[C@H](CCC(=O)O)[C@H]1CC[C@H]2[C@@H]3[C@H](O)C[C@@H]4C[C@H](O)CC[C@]4(C)[C@H]3C[C@H](O)[C@]12C [CHOLIC ACID]
Not Active: IC50 [1] | Ki [1] | IC50 (Nitric oxide synthase 1) | IC50 (Interstitial collagenase) | IC50 (Glucocorticoid receptor) | IC50 (Progesterone receptor) | IC50 (Cytochrome P450 1A2) | Ki (Cytochrome P450 1A2)
